Measurements published in ChEMBL document CHEMBL5113453, “Design, synthesis, and biological evaluation of a new series of pyrazole derivatives: Discovery of potent and selective JNK3 kinase inhibitors” (Bioorg Med Chem, 2022).
pIC50: −log10 of the molar value.

Columns and labels:
[1] = system: SF-539; experiment: Antiproliferative activity against human SF-539 cells measured after 48 hrs by SRB assay; format: functional, cell-based; details: for pIC50: SF-539, 48 h; for TGI: SF-539, time 48 hrs
[2] = system: SF-295; experiment: Antiproliferative activity against human SF-295 cells measured after 48 hrs by SRB assay; format: functional, cell-based; details: for pIC50: SF-295, 48 h; for TGI: SF-295, time 48 hrs
[3] = system: NCI-H460; experiment: Antiproliferative activity against human NCI-H460 cells measured after 48 hrs by SRB assay; format: functional, cell-based; details: for pIC50: NCI-H460, 48 h; for TGI: NCI-H460, time 48 hrs
[4] = system: Hs-578T; experiment: Antiproliferative activity against human Hs-578T cells measured after 48 hrs by SRB assay; format: functional, cell-based; details: for pIC50: 48 h; for TGI: time 48 hrs
[5] = system: SK-MEL-2; experiment: Antiproliferative activity against human SK-MEL-2 cells measured after 48 hrs by SRB assay; format: functional, cell-based; details: for pIC50: SK-MEL-2, 48 h; for TGI: SK-MEL-2, time 48 hrs
[6] = system: MDA-MB-231; experiment: Antiproliferative activity against human MDA-MB-231 cells measured after 48 hrs by SRB assay; format: functional, cell-based; details: for pIC50: MDA-MB-231, 48 h; for TGI: MDA-MB-231, time 48 hrs
[7] = system: T47D; experiment: Antiproliferative activity against human T47D cells measured after 48 hrs by SRB assay; format: functional, cell-based; details: for pIC50: 48 h; for TGI: time 48 hrs
[8] = system: SK-MEL-5; experiment: Antiproliferative activity against human SK-MEL-5 cells measured after 48 hrs by SRB assay; format: functional, cell-based; details: for pIC50: SK-MEL-5, 48 h; for TGI: SK-MEL-5, time 48 hrs
[9] = system: TK-10; experiment: Antiproliferative activity against human TK-10 cells measured after 48 hrs by SRB assay; format: functional, cell-based; details: for pIC50: TK-10, 48 h; for TGI: TK-10, time 48 hrs
[10] = system: NCI-H23; experiment: Antiproliferative activity against human NCI-H23 cells measured after 48 hrs by SRB assay; format: functional, cell-based; details: for pIC50: NCI-H23, 48 h; for TGI: NCI-H23, time 48 hrs
[11] = system: CCRF-CEM; experiment: Antiproliferative activity against human CCRF-CEM cells measured after 48 hrs by SRB assay; format: functional, cell-based; details: for pIC50: 48 h; for TGI: time 48 hrs
[12] = system: UO-31; experiment: Antiproliferative activity against human UO-31 cells measured after 48 hrs by SRB assay; format: functional, cell-based; details: for pIC50: UO-31, 48 h; for TGI: UO-31, time 48 hrs
[13] = system: IGROV-1; experiment: Antiproliferative activity against human IGROV-1 cells measured after 48 hrs by SRB assay; format: functional, cell-based; details: for pIC50: IGROV-1, 48 h; for TGI: IGROV-1, time 48 hrs
[14] = system: HOP-62; experiment: Antiproliferative activity against human HOP-62 cells measured after 48 hrs by SRB assay; format: functional, cell-based; details: for pIC50: HOP-62, 48 h; for TGI: HOP-62, time 48 hrs
[15] = system: U-251; experiment: Antiproliferative activity against human U-251 cells measured after 48 hrs by SRB assay; format: functional, cell-based; details: for pIC50: U-251, 48 h; for TGI: U-251, time 48 hrs
[16] = system: COLO 205; experiment: Antiproliferative activity against human COLO 205 cells measured after 48 hrs by SRB assay; format: functional, cell-based; details: for pIC50: COLO 205, 48 h; for TGI: COLO 205, time 48 hrs
[17] = system: MDA-MB-435; experiment: Antiproliferative activity against human MDA-MB-435 cells measured after 48 hrs by SRB assay; format: functional, cell-based; details: for pIC50: MDA-MB-435, 48 h; for TGI: MDA-MB-435, time 48 hrs
[18] = system: MCF7; experiment: Antiproliferative activity against human MCF7 cells measured after 48 hrs by SRB assay; format: functional, cell-based; details: for pIC50: MCF7, 48 h; for TGI: MCF7, time 48 hrs
[19] = system: HCC 2998; experiment: Antiproliferative activity against human HCC 2998 cells measured after 48 hrs by SRB assay; format: functional, cell-based; details: for pIC50: HCC 2998, 48 h; for TGI: HCC 2998, time 48 hrs
[20] = system: HT-29; experiment: Antiproliferative activity against human HT-29 cells measured after 48 hrs by SRB assay; format: functional, cell-based; details: for pIC50: HT-29, 48 h; for TGI: HT-29, time 48 hrs
[21] = system: UACC-257; experiment: Antiproliferative activity against human UACC-257 cells measured after 48 hrs by SRB assay; format: functional, cell-based; details: for pIC50: UACC-257, 48 h; for TGI: UACC-257, time 48 hrs
[22] = system: HOP-92; experiment: Antiproliferative activity against human HOP-92 cells measured after 48 hrs by SRB assay; format: functional, cell-based; details: for pIC50: HOP-92, 48 h; for TGI: HOP-92, time 48 hrs
[23] = system: RPMI-8226; experiment: Induction of apoptosis in human RPMI-8226 cells assessed as fold increase in caspase-3/7 activity at 0.73 uM; format: functional
[24] = system: Hep 3B2; experiment: Antiproliferative activity against human Hep3B cells measured by MTT assay; format: functional, cell-based
[25] = system: HepG2; experiment: Antiproliferative activity against human HepG2 cells measured by MTT assay; format: functional, cell-based
[26] = system: RPMI-8226; experiment: Induction of apoptosis in human RPMI-8226 cells assessed as fold increase in caspase-3/7 activity at 6.12 uM; format: functional
[27] = system: RPMI-8226; experiment: Induction of necrosis in human RPMI-8226 cells assessed as LDH release at 6.12 uM; format: functional
[28] = system: RPMI-8226; experiment: Induction of necrosis in human RPMI-8226 cells assessed as LDH release at 0.73 uM; format: functional

O=C(Nc1ccc(Cl)c(C(F)(F)F)c1)N1CCN(c2cc(-c3cn(-c4ccccc4)nc3-c3cccc(O)c3)ccn2)CC1
pIC50 [1]: 5.38
TGI [1]: > 22 µM
pIC50 [2]: 5.82
TGI [2]: 7.25 µM
pIC50 [3]: 5.61
TGI [3]: > 22 µM
pIC50 [4]: 5.47
TGI [4]: 15.8 µM
pIC50 [5]: 5.45
TGI [5]: 7.57 µM
pIC50 [6]: 5.51
TGI [6]: 7.57 µM
pIC50 [7]: 5.95
TGI [7]: 14.8 µM
pIC50 [8]: 5.59
TGI [8]: 5.45 µM
pIC50 [9]: 5.23
TGI [9]: > 22 µM
pIC50 [10]: 5.43
TGI [10]: 14.9 µM
pIC50 [11]: 5.80
TGI [11]: 9.71 µM
pIC50 [12]: 5.52
TGI [12]: > 22 µM
pIC50 [13]: 5.29
TGI [13]: > 22 µM
pIC50 [14]: 5.20
TGI [14]: > 22 µM
pIC50 [15]: 5.37
TGI [15]: > 22 µM
pIC50 [16]: 5.52
TGI [16]: 9.39 µM
pIC50 [17]: 5.64
TGI [17]: 6.33 µM
pIC50 [18]: 5.74
TGI [18]: 10.1 µM
pIC50 [19]: 5.21
TGI [19]: > 22 µM
pIC50 [20]: 5.39
TGI [20]: > 22 µM
pIC50 [21]: 5.32
TGI [21]: 14.3 µM
pIC50 [22]: 5.59
TGI [22]: 15.9 µM

O=C(NCCCNc1cc(-c2cn(-c3ccccc3)nc2-c2cccc(O)c2)ccn1)Nc1cccc(C(F)(F)F)c1
pIC50 [1]: 5.56
TGI [1]: 7.18 µM
pIC50 [2]: 5.75
TGI [2]: 6.42 µM
pIC50 [3]: 5.46
TGI [3]: 8.89 µM
pIC50 [4]: 5.87
TGI [4]: 7.74 µM
pIC50 [5]: 5.28
TGI [5]: 11.7 µM
pIC50 [6]: 5.55
TGI [6]: 7.76 µM
pIC50 [7]: 5.47
TGI [7]: 16.7 µM
fold change (FC) [23]: 1.96
pIC50 [8]: 5.49
TGI [8]: 7.17 µM
pIC50 [9]: 5.24
TGI [9]: 13.2 µM
pIC50 [10]: 5.36
TGI [10]: 9.34 µM
pIC50 [24]: 5.31
pIC50 [11]: 5.77
TGI [11]: > 33.3 µM
pIC50 [25]: 5.19
fold change (FC) [26]: 2.83
pIC50 [12]: 5.68
TGI [12]: 10.8 µM
pIC50 [13]: 5.55
TGI [13]: 7.98 µM
Activity [27]: 34.5%
pIC50 [14]: 5.39
TGI [14]: 9.59 µM
pIC50 [15]: 5.59
TGI [15]: 7.45 µM
Activity [28]: 6.7%
pIC50 [16]: 5.53
TGI [16]: 8.72 µM
pIC50 [17]: 5.47
TGI [17]: 7.57 µM
pIC50 [18]: 5.56
TGI [18]: 9.39 µM
pIC50 [19]: 5.90
TGI [19]: 4.34 µM
pIC50 [20]: 5.82
TGI [20]: 6.19 µM
pIC50 [21]: 5.32
TGI [21]: 10.1 µM
pIC50 [22]: 5.90
TGI [22]: 6.01 µM
